Test results as given in patent US7776572B2, “Method for reducing loss of enzyme activity during storage” (Corning Incorporated, priority 1996, dated 2010).

What was measured:
[1] = test system: IgG (Horse Standard, Pierce); assay: Coating durability using protein solution washes on four polymers, colloidal Au; details: after six IgG solution exposures
Experimental: The procedures used were as follows. Injection molded assay plates (96-well format) were made from polystyrene, (STYRON Dow 685D), polypropylene (Exxon 9374), polymethyl methacrylate (ATO HAAS), and KYNAR FLEX 2800 PVDF copolymer (ATO HAAS). Each well was aliquoted 0.10 ml of IgG (Horse Standard, Pierce) at 10 μg/ml in 0.01 M PBS buffer (pH=7.4) and placed on a rocker table for 30 minutes at 23° C. The protein solution was then emptied from the wells and a fresh protein solution was aliquoted to each well and the entire procedure repeated a total of six times. The plates were then rinsed three times with dI H2O (0.3 ml/well). Colloidal Au stain was added to each well (0.3 ml/well) and the plates were placed on a rocker table overnight. Plates were then rinsed 3 times with dI H2O, allowed to dry, and absorbance at 550 nm was measured using the Cambridge Technologies Plate Reader.

IgG = assay: Protein binding to coated 0.45 micron PVDF membranes, Au stain; details: coated two times by immersion, 0.1% in isopropanol; IgG 10 μg/ml
Experimental: The experiments were performed using 0.45 micron PVDF membranes. The membranes were coated two times by immersion using 0.1% (weight/volume) of the following non-ionic surfactants in isopropanol: sorbitol mono-oleate, Pluronic® L-121, Pluronic® L-122, and Pluronic® L-123. The membrane was dried at room temperature after each of the two immersion coatings. The coated membranes were incubated with IgG 10 μg/ml in 0.1M PBS (pH 7.4) for 30 minutes at room temperature on an orbital shaker. The membranes were then rinsed three times with water in a clean plate, each rinse being performed for 5 minutes on the shaker. Thereafter, the membranes were stained with Au overnight, again on the shaker. An uncoated PVDF membrane was used as a control.

IgG protein = assay: In-mold coating of 24-well polystyrene plates, protein binding by colloidal gold staining
Experimental: The in-mold coating aspects of the invention were tested by molding 24-well polystyrene plates. […] The 0.01% concentration was estimated to produce less than one monolayer of surfactant on the finished product, while the 0.1% concentration produced about 7 monolayers. The surfactant was applied to the mold using a Crown sprayer (Crown Industrial Products, Hebron, Ill.; Catalog #8011), which produces a sufficiently fine spray of droplets to uniformly coat the mold. The mold was sprayed before each part was made.

BSA protein = assay: Coating stability in the presence of excess protein, colloidal gold
Experimental: The following procedures were employed in this example. 24-well polystyrene plates were coated as described in Materials and Methods using 25 μl aliquots of 0.10% (w/v) sorbitol mono-oleate in isopropanol. Coverage of the sorbitol mono-oleate was calculated at 10 μg/cm^2. Each well of the plates was exposed to 1.0 ml of BSA protein (Pierce) at 2 mg/ml in PBS buffer (pH=7.4). The plates were incubated on a rocker table for 30 minutes at room temperature, the wells were emptied, and the protein exposure was repeated a total of six times. The plates were then rinsed 3 times with dI H2O and stained with the colloidal gold stain overnight. Plates were then rinsed with dI H2O, dried, and the absorbance of each well was measured at 550 nm on the Cambridge Technologies plate reader.

IgG (horse) = assay: IgG binding to 24-well plates, surfactant dried or not dried before H2O rinse, colloidal Au; details: 0.5% surfactant in H2O/isopropanol (90/10); for Absorbance (550 nm) Dried before H2O rinse: then rinsed 5x; for Absorbance (550 nm) H2O rinsed before drying: not dried, rinsed 5x immediately
Experimental: Duplicate 24-well plates were prepared as follows. Individual wells were filled with 3 ml of non-ionic surfactants at 0.5% (weight/volume) in H2O/isopropanol (90/10 weight/volume).
The duplicate plates were incubated for 30 minutes at room temperature on a rocker table and then emptied. One plate was tapped out and then allowed to dry at room temperature in a hood. It was then rinsed 5× with dI H2O. The second plate was not allowed to dry, but instead was immediately rinsed 5× with H2O. The plates were then tested for protein binding by filling each well with 0.5 ml of IgG (horse) at 10 μg/ml in PBS buffer and incubating for 30 minutes on a rocker table at room temperature. The plates were then rinsed with dI H2O and stained overnight with colloidal Au.

Compound | Absorbance (550 nm) Polypropylene [1] | Absorbance (550 nm) Polystyrene [1] | protein binding to coated PVDF membrane (IgG) | protein binding of in-mold coated part (IgG protein; concentrations above 0.1%, ranging up to 2%) | protein binding of in-mold coated part (IgG protein; mold sprayed with 0.01% (w/v) solution in isopropanol) | protein binding of in-mold coated part (IgG protein; mold sprayed with 0.1% (w/v) solution in isopropanol) | Absorbance at 550 nm (BSA protein; 1 exposure to BSA 2 mg/ml, 30 min total, coated polystyrene) | Absorbance at 550 nm (BSA protein; 2 exposures, 60 min total) | Absorbance at 550 nm (BSA protein; 3 exposures, 90 min total) | Absorbance at 550 nm (BSA protein; 4 exposures, 120 min total) | Absorbance at 550 nm (BSA protein; 5 exposures, 150 min total) | Absorbance at 550 nm (BSA protein; 6 exposures, 180 min total) | Absorbance (550 nm) Dried before H2O rinse (IgG (horse)) | Absorbance (550 nm) H2O rinsed before drying (IgG (horse))
SORBITOL MONO-OLEATE | 0.00 | 0.00 | substantially identical to that of the uncoated PVDF | found to work successfully | pooling and missed areas were seen which bound protein | essentially no protein binding | 0.0 | 0.0 | 0.0 | 0.0 | 0.0 | 0.0 | – | –
CCCCCCCC/C=C\CCCCCCCCOCCOCCO [PEO(2) OLEYL ETHER] | – | – | – | – | – | – | – | – | – | – | – | – | 0.00 | 0.14-0.16
CCCCCCCCCCCCOCCOCCOCCOCCO [PEO(4) LAURYL ETHER] | – | – | – | – | – | – | – | – | – | – | – | – | 0.08-0.10 | 0.13-0.16
